Experimental data published in patent US20240002339A1, “THERAPEUTIC COMPOUNDS AND METHODS” (Regents of the University of Minnesota, priority 2022, published 2024).

Legend:
CDK2 [1] = biological target: T1, CDK2 (Homo sapiens (Human), UniProt P24941); test: p-Cl-ANS displacement assay (fluorescent binding assay)
CDK2 [2] = biological target: T1, CDK2; test: Isothermal titration calorimetry (ITC); type: binding
GST-tagged CDK2 = GST-tagged CDK2 (Homo sapiens (Human), UniProt P24941); test: Surface plasmon resonance (SPR); type: binding; details: read-out: SPR Kd (SSA)
CDK2/cyclin A = CDK2/cyclin A (Homo sapiens (Human), UniProt P24941); test: ADP-Glo enzymatic activity assay; type: biochemical

SMILES	IC50 (CDK2 [1]) [µM]	Kd (CDK2 [2]) [µM]	other results
Cc1cc(NCCc2c[nH]c3ccccc23)c(C(=O)O)cc1[N+](=O)[O-] [Example 6]	4.2	5.7	–
Nc1c([N+](=O)[O-])ccc(NCCc2c[nH]c3ccccc23)c1C(=O)O [Example 7]	4.1	4.4	–
O=C(O)c1c(O)cccc1NCCc1c[nH]c2ccccc12 [Example 8]	20	5.9	–
O=C(O)c1c(NCCc2c[nH]c3ccccc23)ccc([N+](=O)[O-])c1O [Example 9]	0.66	0.36	–
O=C(O)c1cc([N+](=O)[O-])ccc1NCCc1c[nH]c2cccc(F)c12 [Example 17]	2.1	–	–
O=C(O)c1cc([N+](=O)[O-])ccc1NCCc1c[nH]c2ccc(F)cc12 [Example 19]	2.5	–	–
O=C(O)c1cc([N+](=O)[O-])ccc1NCCc1c[nH]c2c(F)cccc12 [Example 20]	6	–	–
COc1ccc2c(CCNc3ccc([N+](=O)[O-])cc3C(=O)O)c[nH]c2c1 [Example 23]	1.5	–	–
O=C(O)c1cc([N+](=O)[O-])ccc1NCCc1c[nH]c2cc(OC(F)(F)F)ccc12 [Example 25]	0.94	–	–
O=C(O)c1cc(C(F)(F)F)ccc1NCCc1c(CO)[nH]c2ccccc12 [Example 27]	0.63	–	–
O=C(O)c1cc(C(F)(F)F)ccc1NCCc1c[nH]c2ccc([N+](=O)[O-])cc12 [Example 28]	0.66	–	–
N#Cc1ccc2[nH]cc(CCNc3ccc(C(F)(F)F)cc3C(=O)O)c2c1 [Example 29]	6.2	–	–
O=C(O)c1cc(C(F)(F)F)ccc1NCCc1c[nH]c2c(O)cccc12 [Example 31]	3.4	–	–
FC(F)(F)c1ccc(NCCc2c[nH]c3ccccc23)c(-c2nnn[nH]2)c1 [Example 33]	6.6	–	–
O=C(O)c1cc(C(F)(F)F)ccc1NCCc1c[nH]c2cc(F)ccc12 [Example 34]	0.17	0.21	–
O=C(O)c1cc(C(F)(F)F)ccc1NCCc1c[nH]c2cc(Cl)ccc12 [Example 35]	0.092	0.031	Kd (GST-tagged CDK2): 0.024 µM; IC50 (CDK2/cyclin A): 0.088 µM
FC(F)(F)c1ccc(NCCc2c[nH]c3cc(Br)ccc23)c(-c2nnn[nH]2)c1 [Example 37]	0.63	–	–
O=C(O)c1cc(SC(F)(F)F)ccc1NCCc1c[nH]c2ccccc12 [Example 40]	0.15	–	–
O=C(O)c1cc(F)c(F)cc1NCCc1c[nH]c2ccccc12 [Example 41]	2.4	–	–
O=C(O)c1cc2c(cc1NCCc1c[nH]c3ccccc13)CCCC2 [Example 42]	6.8	–	–
O=C(O)c1cc2ccccc2cc1NCCc1c[nH]c2ccccc12 [Example 43]	2.7	–	–
Cc1[nH]c2cc(Cl)cc(Cl)c2c1CCNc1ccc(C(F)(F)F)cc1C(=O)O [Example 44]	0.93	–	–
Cc1[nH]c2c(Cl)c(Cl)ccc2c1CCNc1ccc(C(F)(F)F)cc1C(=O)O [Example 45]	1.6	–	–
O=C(O)c1cc(C(F)(F)F)ccc1SCCc1c[nH]c2ccccc12 [Example 46]	1	–	–
Cc1[nH]c2cc(F)ccc2c1CC(C)Nc1ccc(C(F)(F)F)cc1C(=O)O (stereo not shown) [Example 47]	0.17	–	–

SMILES	IC50 (CDK2 [1]) [µM]	Kd (CDK2 [2]) [µM]	other results
O=C(O)c1cc(OC(F)(F)F)ccc1NCCc1c[nH]c2cc(F)ccc12 [Example 48]	0.18	–	–
CCOc1cc(NCCc2c[nH]c3cc(C#N)ccc23)c(C(=O)O)cc1OCC [Example 62, 2-((2-(6-Cyano-1H-indol-3-yl)ethyl)amino)-4,5-diethoxybenzoic acid]	0.77	–	–
O=C(O)c1cc(OC(F)(F)F)ccc1NCCc1c[nH]c2cc(Br)ccc12 [Example 63, 2-((2-(6-Bromo-1H-indol-3-yl)ethyl)amino)-5-(trifluoromethoxy)benzoic acid]	< 0.1	–	–
O=C(O)c1cc(SC(F)(F)F)ccc1NCCc1c(CO)[nH]c2ccccc12 [Example 64, 2-((2-(2-(Hydroxymethyl)-1H-indol-3-yl)ethyl)amino)-5-((trifluoromethyl)thio)benzoic acid]	3.8	–	–
O=C(O)c1cc(SC(F)(F)F)ccc1NCCc1c(CO)[nH]c2cc(Br)ccc12 [Example 65, 2-((2-(6-Bromo-2-(hydroxymethyl)-1H-indol-3-yl)ethyl)amino)-5-((trifluoromethyl)thio)benzoic acid]	0.34	–	–
O=C(O)c1cc(SC(F)(F)F)ccc1NCCc1c[nH]c2cc(Br)ccc12 [Example 66, 2-((2-(6-Bromo-1H-indol-3-yl)ethyl)amino)-5-((trifluoromethyl)thio)benzoic acid]	0.17	–	–
N#Cc1ccc2c(CCNc3ccc(SC(F)(F)F)cc3C(=O)O)c[nH]c2c1 [Example 67, 2-((2-(6-Cyano-1H-indol-3-yl)ethyl)amino)-5-((trifluoromethyl)thio)benzoic acid]	< 0.1	–	–
Cc1c([N+](=O)[O-])ccc(NCCc2c[nH]c3ccccc23)c1C(=O)O [Example 68, 6-((2-(1H-Indol-3-yl)ethyl)amino)-2-methyl-3-nitrobenzoic]	4.9	–	–
COc1cc(NCCc2c[nH]c3ccccc23)c(C(=O)O)cc1Br [Example 69, 2-((2-(1H-Indol-3-yl)ethyl)amino)-5-bromo-4-methoxybenzoic acid]	28	–	–
Cc1cc(C(=O)O)c(NCCc2c[nH]c3ccccc23)cc1Cl [Example 70, 2-((2-(1H-Indol-3-yl)ethyl)amino)-4-chloro-5-methylbenzoic acid]	11	6.3	–
COc1cc(NCCc2c[nH]c3ccccc23)c(C(=O)O)cc1OC [Example 71, 2-((2-(1H-Indol-3-yl)ethyl)amino)-4,5-dimethoxybenzoic acid]	–	10	–
O=C(O)c1cc2c(cc1NCCc1c[nH]c3ccccc13)OCCO2 [Example 73, 7-((2-(1H-Indol-3-yl)ethyl)amino)-2,3-dihydrobenzo[b][1,4]dioxine-6-carboxylic acid]	–	30	–
Cc1ccc(NCCc2c[nH]c3ccccc23)c(C(=O)O)c1 [Example 76, 2-((2-(1H-Indol-3-yl)ethyl)amino)-5-methylbenzoic acid]	–	36	–
CCc1ccc(NCCc2c[nH]c3ccccc23)c(C(=O)O)c1 [Example 77, 2-((2-(1H-Indol-3-yl)ethyl)amino)-5-ethylbenzoic acid]	18	22	–
O=C(O)c1cc(-c2ccccc2)ccc1NCCc1c[nH]c2ccccc12 [Example 79, 4-((2-(1H-Indol-3-yl)ethyl)amino)-[1,1′-biphenyl]-3-carboxylic acid]	11	> 100	–
CC(C)(C)c1ccc(NCCc2c[nH]c3ccccc23)c(C(=O)O)c1 [Example 80, 2-((2-(1H-Indol-3-yl)ethyl)amino)-5-(tert-butyl)benzoic acid]	21	> 100	–
CCCc1ccc(NCCc2c[nH]c3ccccc23)c(C(=O)O)c1 [Example 81, 2-((2-(1H-Indol-3-yl)ethyl)amino)-5-propylbenzoic acid]	5.6	6.5	–
CCSc1ccc(NCCc2c[nH]c3ccccc23)c(C(=O)O)c1 [Example 85, 2-((2-(1H-Indol-3-yl)ethyl)amino)-5-(ethylthio)benzoic acid]	–	9.1	–
O=C(O)c1c(NCCc2c[nH]c3ccccc23)cccc1[N+](=O)[O-] [Example 88, 2-((2-(1H-Indol-3-yl)ethyl)amino)-6-nitrobenzoic acid]	94	79	–
O=C(O)c1c(NCCc2c[nH]c3ccccc23)cccc1C(F)(F)F [Example 89, 2-((2-(1H-Indol-3-yl)ethyl)amino)-6-(trifluoromethyl)benzoic acid]	120	–	–
N#Cc1cccc(NCCc2c[nH]c3ccccc23)c1C(=O)O [Example 90, 2-((2-(1H-Indol-3-yl)ethyl)amino)-6-cyanobenzoic acid]	37	–	–
O=Cc1ccc(NCCc2c[nH]c3ccccc23)c(C(=O)O)c1 [Example 91, 2-((2-(1H-Indol-3-yl)ethyl)amino)-5-formylbenzoic acid]	36	–	–
O=C(O)c1cc([N+](=O)[O-])ccc1NCCc1c(C(=O)O)[nH]c2ccccc12 [Example 93, 3-(2-((2-Carboxy-4-nitrophenyl)amino)ethyl)-1H-indole-2-carboxylic acid]	16	–	–
O=C(O)c1cc(C(F)(F)F)ccc1NCCc1c[nH]c2cccc(O)c12 [Example 94, 2-((2-(4-Hydroxy-1H-indol-3-yl)ethyl)amino)-5-(trifluoromethyl)benzoic acid]	51	–	–
O=C(O)c1cc(C(F)(F)F)ccc1NCCc1c[nH]c2cc(O)ccc12 [Example 95, 2-((2-(6-Hydroxy-1H-indol-3-yl)ethyl)amino)-5-(trifluoromethyl)benzoic acid]	91	–	–
